Where two headings read alike, the source gives them in different places.
Assays:
FimH lectin domain [1] = molecular target: T1, FimH lectin domain (Escherichia coli, UniProt P08191); assay: biochemical; assay type: binding, E. coli strain J96; conditions: for fold by which inhibition potential exceeds parent 115: Table 5; for Kd SPR (nM): Table S2
FimH = conditions: Table S2; read-out: Kd ITC (converted); cited from earlier work
FimH lectin domain [2] = molecular target: T1, FimH lectin domain; conditions: cited from earlier work
[3] = Kd (nM), Table 4, SPR detection, sulfonamide and amide spacers
[4] = Kd (nM), Table 5, SPR, C-linked mannopyranosides
[5] = Kd SPR (nM), solution affinity by SPR competition, Tables 1-3
[6] = Table 5, SPR, C-linked mannopyranosides

T1 sequence (P08191 22-179 limits assumed): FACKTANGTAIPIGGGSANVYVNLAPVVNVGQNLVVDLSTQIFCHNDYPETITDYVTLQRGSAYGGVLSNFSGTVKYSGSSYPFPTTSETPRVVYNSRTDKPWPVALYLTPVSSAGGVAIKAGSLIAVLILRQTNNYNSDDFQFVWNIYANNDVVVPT

O=S(=O)(NCCO[C@H]1O[C@H](CO)[C@@H](O)[C@H](O)[C@@H]1O)c1ccccc1 [Compound 70]
Kd (FimH lectin domain [1]; [3]): 146 ± 26 nM

O=[N+]([O-])c1ccc(S(=O)(=O)NCCO[C@H]2O[C@H](CO)[C@@H](O)[C@H](O)[C@@H]2O)cc1 [Compound 71]
Kd (FimH lectin domain [1]; [3]): 408 ± 52 nM

Cc1ccc(S(=O)(=O)NCCO[C@H]2O[C@H](CO)[C@@H](O)[C@H](O)[C@@H]2O)cc1 [Compound 72]
Kd (FimH lectin domain [1]; [3]): 168 ± 64 nM

CC(C)(C)c1ccc(S(=O)(=O)NCCO[C@H]2O[C@H](CO)[C@@H](O)[C@H](O)[C@@H]2O)cc1 [Compound 73]
Kd (FimH lectin domain [1]; [3]): 122 ± 11 nM

CC(C)c1cc(C(C)C)c(S(=O)(=O)NCCO[C@H]2O[C@H](CO)[C@@H](O)[C@H](O)[C@@H]2O)c(C(C)C)c1 [Compound 74]
Kd (FimH lectin domain [1]; [3]): 37 ± 5 nM

O=S(=O)(NCCO[C@H]1O[C@H](CO)[C@@H](O)[C@H](O)[C@@H]1O)c1cccc2ccccc12 [Compound 75]
Kd (FimH lectin domain [1]; [3]): 148 ± 18 nM

C=CC[C@H]1O[C@H](CO)[C@@H](O)[C@H](O)[C@@H]1O [Compound 78]
Kd (FimH lectin domain [1]; [4]): 118 ± 20 nM

O=C(C[C@H]1O[C@H](CO)[C@@H](O)[C@H](O)[C@@H]1O)Nc1ccccc1 [Compound 91]
Kd (FimH lectin domain [1]; [3]): 372 ± 26 nM

O=C(C[C@H]1O[C@H](CO)[C@@H](O)[C@H](O)[C@@H]1O)NCc1ccccc1 [Compound 92]
Kd (FimH lectin domain [1]; [3]): 397 ± 83 nM

O=C(C[C@H]1O[C@H](CO)[C@@H](O)[C@H](O)[C@@H]1O)NCCCc1ccccc1 [Compound 93]
Kd (FimH lectin domain [1]; [3]): 105 ± 44 nM
fold rise of FimH inhibitory capacity versus 91 and 92 (FimH lectin domain [1]; SPR Kd): 4 fold

CC(=O)Nc1ccc(NC(=O)C[C@H]2O[C@H](CO)[C@@H](O)[C@H](O)[C@@H]2O)cc1 [Compound 94]
Kd (FimH lectin domain [1]; [3]): 227 ± 54 nM

O=C(C[C@H]1O[C@H](CO)[C@@H](O)[C@H](O)[C@@H]1O)Nc1ccc(O)cc1 [Compound 95]
Kd (FimH lectin domain [1]; [3]): 328 ± 63 nM

O=C(C[C@H]1O[C@H](CO)[C@@H](O)[C@H](O)[C@@H]1O)NCCc1ccc(O)cc1 [Compound 96]
Kd (FimH lectin domain [1]; [3]): 970 ± 382 nM

OC[C@H]1O[C@H](CCCSCc2ccccc2)[C@@H](O)[C@@H](O)[C@@H]1O [Compound 106]
Kd (FimH lectin domain [1]; [5]): 25 ± 6.3 nM

CCCCSCCC[C@H]1O[C@H](CO)[C@@H](O)[C@H](O)[C@@H]1O [Compound 107]
Kd (FimH lectin domain [1]; [5]): 22 ± 2.8 nM

CCCSCCC[C@H]1O[C@H](CO)[C@@H](O)[C@H](O)[C@@H]1O [Compound 108]
Kd (FimH lectin domain [1]; [5]): 36 ± 9 nM

CCSCCC[C@H]1O[C@H](CO)[C@@H](O)[C@H](O)[C@@H]1O [Compound 109]
Kd (FimH lectin domain [1]; [5]): 78 ± 5.6 nM

CC(C)SCCC[C@H]1O[C@H](CO)[C@@H](O)[C@H](O)[C@@H]1O [Compound 110]
Kd (FimH lectin domain [1]; [5]): 32 ± 4.1 nM

OC[C@H]1O[C@H](C/C=C/c2ccccc2)[C@@H](O)[C@@H](O)[C@@H]1O [Compound 115]
Kd (FimH lectin domain [1]; [4]): 182 ± 25 nM
fold more active than amide-linked analog 91 (FimH lectin domain [1]; SPR Kd): 2 fold

OC[C@H]1O[C@H](C/C=C/c2ccc(-c3ccccc3)cc2)[C@@H](O)[C@@H](O)[C@@H]1O [Compound 116]
Kd (FimH lectin domain [1]; [4]): 17 ± 3.5 nM
fold by which inhibition potential exceeds parent 115 (FimH lectin domain [1]; SPR Kd): ~4 fold
Kd (FimH): 58 ± 14 nM

OC[C@H]1O[C@H](C/C=C/c2ccccc2-c2ccccc2)[C@@H](O)[C@@H](O)[C@@H]1O [Compound 117]
Kd (FimH lectin domain [1]; [4]): 6.9 ± 5.7 nM
fold by which inhibition potential exceeds parent 115 (FimH lectin domain [1]; SPR Kd): ~26 fold

OC[C@H]1O[C@H](C/C=C/c2cccc3ccccc23)[C@@H](O)[C@@H](O)[C@@H]1O [Compound 118]
Kd (nM) (FimH lectin domain [1]; [6]): nf
Kd SPR (nM) (FimH lectin domain [1]): nf
Kd (FimH): 23 ± 5.5 nM

OC[C@H]1O[C@H](CCCc2ccccc2)[C@@H](O)[C@@H](O)[C@@H]1O [Compound 119]
Kd (FimH lectin domain [1]; [4]): 49 ± 5.3 nM

OC[C@H]1O[C@H](CCCc2ccc(-c3ccccc3)cc2)[C@@H](O)[C@@H](O)[C@@H]1O [Compound 120]
Kd (nM) (FimH lectin domain [1]; [6]): nf
Kd SPR (nM) (FimH lectin domain [1]): nf

OC[C@H]1O[C@H](CCCc2ccccc2-c2ccccc2)[C@@H](O)[C@@H](O)[C@@H]1O [Compound 121]
Kd (FimH lectin domain [1]; [4]): 123 ± 21 nM

OC[C@H]1O[C@H](CCCc2cccc3ccccc23)[C@@H](O)[C@@H](O)[C@@H]1O [Compound 122]
Kd (nM) (FimH lectin domain [1]; [6]): nf
Kd SPR (nM) (FimH lectin domain [1]): nf

CCC[C@H]1O[C@H](CO)[C@@H](O)[C@H](O)[C@@H]1O [Compound 123]
Kd (FimH lectin domain [1]; [4]): 266 ± 26 nM

CCCCCCO[C@H]1O[C@H](CO)[C@@H](O)[C@H](O)[C@@H]1O [hexyl]
Kd (FimH lectin domain [2]; solution affinity by SPR, read-out: Kd SPR): 10 nM

CC(=O)N[C@H]1[C@H](O[C@H]2[C@H](O)[C@@H](NC(C)=O)C(O)O[C@@H]2CO)O[C@H](CO)[C@@H](O[C@@H]2O[C@H](CO[C@H]3O[C@H](CO)[C@@H](O)[C@H](O)[C@@H]3O)[C@@H](O)[C@H](O[C@H]3O[C@H](CO)[C@@H](O)[C@H](O)[C@@H]3O)[C@@H]2O)[C@@H]1O (stereo partly shown) [oligomannoside-3, reference compound]
KA (FimH lectin domain [1]; Figure S19, fit of solution affinity model to inhibition curve): 49462067.1 M⁻¹
Kd (FimH lectin domain [1]; Figure S19, fit of solution affinity model to inhibition curve, read-out: KD): 20.2 nM
Kd (FimH lectin domain [2]; highest-affinity natural epitope for FimH, Fab IC10 chip, read-out: Kd): 20 nM

— publication PMC6152123, “Sites for Dynamic Protein-Carbohydrate Interactions of O- and C-Linked Mannosides on the E. coli FimH Adhesin” (Molecules : A Journal of Synthetic Chemistry and Natural …, 2017)
